The text below walks through data of patent US7872004B2, “6-(heterocyclyl-substituted benzyl)-4-oxoquinoline compound and use thereof as HIV integrase inhibitor” (Japan Tobacco Inc., priority 2006, dated 2011).

The term IC50 denotes the concentration needed to halve the response being measured.

For the assay, the target named is T1, HIV integrase (Human immunodeficiency virus type 1 group M subtype B, UniProt P12497, F1332H).
T1 construct: HIV integrase full length gene; made in house; host or cells: Escherichia coli BL21(DE3)
The experiment in a line: Determination of enzyme (HIV integrase) inhibitory activity. It is filed as biochemical, HIV (Human Immunodeficiency Virus (type 1)). The note with it: recombinant integrase protein (F185H), strand transfer plate assay, absorbance at 450 nm. From the text:
The following explains evaluation methods of the HIV integrase inhibitory activity of the compound of the present invention.
(i) Construction of Recombinant Integrase Gene Expression System
HIV integrase full length gene (J. Virol., 67, 425-437 (1993)) in which phenylalanine at codon 185 was substituted by histidine, was inserted between the restriction enzyme NdeI and XhoI sites of plasmid pET21a(+) (Novagen), whereby an integrase expression vector pET21a-IN-F185H was constructed.
(ii) Production and Purification of Integrase Protein
Escherichia coli recombinant BL21(DE3) transformed with plasmid pET21a-IN-F185H obtained in (i) was shake cultured at 30° C. in a liquid medium containing ampicillin. When the culture reached the logarithmic growth phase, isopropyl-β-D-thiogalactopyranoside was added to promote expression of integrase gene. The culture was continued for 3 hr to promote accumulation of the integrase protein. The recombinant E. coli was collected in pellets by centrifugal separation and preserved at −80° C.
The E. coli was suspended in Lysis buffer ([…] HEPES (pH 7.5), 5 mM DTT, 10 mM CHAPS, 10% glycerol) containing 1M sodium chloride and subjected to repeat pressurization and depressurization for rupture, and centrifugal separation at 4° C., 40,000×g, 60 min to recover a water-soluble fraction (supernatant). This was diluted 10-fold with Lysis buffer free of sodium chloride, mixed with SP-Sepharose (GE healthcare Bioscience) and stirred at 4° C. for 60 min to allow adsorption of integrase protein to the resin. The resin was washed with Lysis buffer containing 100 mM sodium chloride and the integrase protein was eluted with Lysis buffer containing 1M sodium chloride.
The eluted integrase protein solution was subjected to a Superdex 75 (GE healthcare Bioscience) column for gel filtration. The protein was eluted with Lysis buffer containing 1M sodium chloride.
The obtained fractions of the integrase protein were collected and preserved at −80° C.
(iii) Preparation of DNA Solution
The following DNA synthesized by Greiner or FASMAC was dissolved in TE buffer (10 mM Tris-hydrochloric acid (pH 8.0), 1 mM EDTA) and mixed with donor DNA, target DNA, and each complementary strand (+ and − strands) to 1 μM. The mixture was heated at 95° C. for 5 min, 80° C. for 10 min, 70° C. for 10 min, 60° C. for 10 min, 50° C. for 10 min and 40° C. for 10 min and kept at 25° C. to give a double stranded DNA, which was used for the test.
(iv) Determination of Enzyme (HIV Integrase) Inhibitory Activity
The donor DNA was diluted with TE buffer to 10 nM (or 5 nM), of which 50 μl was added to each well of streptavidin-coated microtiter plate (Roche) and allowed to adsorb at 37° C. for 60 min. The plate was washed with phosphate buffer (Dulbecco's PBS, Sanko Junyaku Co., Ltd.) containing 0.1% Tween 20 and phosphate buffer. Then, an enzyme reaction mixture (70 μl), a test substance (10 μl) diluted with the enzyme reaction mixture and 100 μg/ml (or 64 μg/ml (2 μM)) integrase protein (10 μl) were added to each well and reacted at 37° C. for 60 min.
Composition of the enzyme reaction mixture: 30 mM MOPS (3-morpholinopropanesulfonic acid), 5 mM magnesium chloride, 3 mM DTT (dithiothreitol), 0.1 mg/ml BSA (bovine serum albumin), 5% glycerol, 10% DMSO (dimethyl sulfoxide), 0.01% Tween 20.
Then, 50 nM (or 25 nM) target DNA (10 μl) was added, reacted at 37° C. for 10 min and washed with phosphate buffer containing 0.1% Tween 20 to stop the reaction.
Then, 100 mU/ml peroxidase labeled anti-digoxigenin antibody solution (Roche, 100 μl) was added, and the mixture was reacted at 37° C. for 60 min, followed by washing with phosphate buffer containing 0.1% Tween 20.
A peroxidase color solution (Bio Rad, 100 μl) was added and allowed to react at room temperature for 4 min (or 3 min). The color reaction was stopped by adding IN sulfuric acid (100 μl). The absorbance at 450 nm was measured. […]
On to `COc1cc2c(cc1Cc1cc(N3CCOCC3)cc(Cl)c1F)c(=O)c(C(=O)O)cn2[C@H](CO)C(C)(C)OC` [Example 42, 6-[3-chloro-2-fluoro-5-(morpholin-4-yl)benzyl]-1-((R)-1-hydroxymethyl-2-methoxy-2-methylpropyl)-7-methoxy-4-oxo-1,4-dihydroquinoline-3-carboxylic acid], for which the IC50 is less than 10 nM.

`CCc1cc2c(cc1Cc1cc(N3CCOCC3)cc(Cl)c1F)c(=O)c(C(=O)O)cn2[C@H](CO)C(C)(C)OC` [Example 43, 6-[3-chloro-2-fluoro-5-(morpholin-4-yl)benzyl]-7-ethyl-1-((R)-1-hydroxymethyl-2-methoxy-2-methylpropyl)-4-oxo-1,4-dihydroquinoline-3-carboxylic acid]: the IC50 was less than 10 nM.

Take `CCc1cc2c(cc1Cc1cc(N3CCOCC3)cc(Cl)c1F)c(=O)c(C(=O)O)cn2[C@H](CO)CCOC` [Example 44, 6-[3-chloro-2-fluoro-5-(morpholin-4-yl)benzyl]-7-ethyl-1-((S)-1-hydroxymethyl-3-methoxypropyl)-4-oxo-1,4-dihydroquinoline-3-carboxylic acid]: the half-maximal inhibitory concentration (IC50) fell in the range of 10 to 100 nM.

`COc1cc2c(cc1Cc1cc(N3CCCC3=O)cc(Cl)c1F)c(=O)c(C(=O)O)cn2[C@H](CO)C(C)(C)C` [Example 45, 6-[3-chloro-2-fluoro-5-(2-oxopyrrolidin-1-yl)benzyl]-1-((S)-1-hydroxymethyl-2,2-dimethylpropyl)-7-methoxy-4-oxo-1,4-dihydroquinoline-3-carboxylic acid]: the IC50 was less than 10 nM.

With `COc1cc2c(cc1Cc1cc(N3CCCC3=O)c(F)c(Cl)c1F)c(=O)c(C(=O)O)cn2[C@H](CO)C(C)(C)C` [Example 46, 6-[3-chloro-2,4-difluoro-5-(2-oxopyrrolidin-1-yl)benzyl]-1-((S)-1-hydroxymethyl-2,2-dimethylpropyl)-7-methoxy-4-oxo-1,4-dihydroquinoline-3-carboxylic acid], the IC50 was less than 10 nM.

Take `COCC[C@@H](CO)n1cc(C(=O)O)c(=O)c2cc(Cc3cc(N4CCCC4=O)cc(Cl)c3F)c(OC)cc21` [Example 47, 6-[3-chloro-2-fluoro-5-(2-oxopyrrolidin-1-yl)benzyl]-1-((S)-1-hydroxymethyl-3-methoxypropyl)-7-methoxy-4-oxo-1,4-dihydroquinoline-3-carboxylic acid]: the IC50 lay within 10 to 100 nM.

As to `COc1cc2c(cc1Cc1cc(N3CCCC3=O)cc(Cl)c1F)c(=O)c(C(=O)O)cn2[C@H](CO)[C@@H](C)OC` [Example 48, 6-[3-chloro-2-fluoro-5-(2-oxopyrrolidin-1-yl)benzyl]-1-((1R,2R)-1-hydroxymethyl-2-methoxypropyl)-7-methoxy-4-oxo-1,4-dihydroquinoline-3-carboxylic acid], the IC50 was less than 10 nM.

As to `COc1cc2c(cc1Cc1cc(N3CCOCC3)c(F)c(Cl)c1F)c(=O)c(C(=O)O)cn2[C@H](CO)C(C)(C)C` [Example 49, 6-[3-chloro-2,4-difluoro-5-(morpholin-4-yl)benzyl]-1-((S)-1-hydroxymethyl-2,2-dimethylpropyl)-7-methoxy-4-oxo-1,4-dihydroquinoline-3-carboxylic acid], the IC50 is less than 10 nM.

As for `CCO[C@H](C)[C@@H](CO)n1cc(C(=O)O)c(=O)c2cc(Cc3cc(N4CCOCC4)cc(Cl)c3F)c(OC)cc21` [Example 50, 6-[3-chloro-2-fluoro-5-(morpholin-4-yl)benzyl]-1-[(1R,2R)-2-ethoxy-1-(hydroxymethyl)propyl]-7-methoxy-4-oxo-1,4-dihydroquinoline-3-carboxylic acid], the IC50 lay within 10 to 100 nM.

On to `CC(C)(C)[C@@H](CO)n1cc(C(=O)O)c(=O)c2cc(Cc3cc(N4CCCC4=O)cc(Cl)c3F)ccc21` [Example 51, 6-[3-chloro-2-fluoro-5-(2-oxopyrrolidin-1-yl)benzyl]-1-((S)-1-hydroxymethyl-2,2-dimethylpropyl)-4-oxo-1,4-dihydroquinoline-3-carboxylic acid], for which the IC50 is less than 10 nM.

With `CCc1cc2c(cc1Cc1cc(N3CCCC3=O)cc(Cl)c1F)c(=O)c(C(=O)O)cn2[C@H](CO)C(C)(C)C` [Example 52, 6-[3-chloro-2-fluoro-5-(2-oxopyrrolidin-1-yl)benzyl]-7-ethyl-1-((S)-1-hydroxymethyl-2,2-dimethylpropyl)-4-oxo-1,4-dihydroquinoline-3-carboxylic acid], the IC50 lay in the range of 10 to 100 nM.

As to `CC(C)(C)[C@@H](CO)n1cc(C(=O)O)c(=O)c2cc(Cc3cc(N4CCOCC4)cc(Cl)c3F)ccc21` [Example 53, 6-[3-chloro-2-fluoro-5-(morpholin-4-yl)benzyl]-1-((S)-1-hydroxymethyl-2,2-dimethylpropyl)-4-oxo-1,4-dihydroquinoline-3-carboxylic acid], the IC50 is less than 10 nM.

For the compound `CC(C)(C)[C@@H](CO)n1cc(C(=O)O)c(=O)c2cc(Cc3cc(N4CCCC4=O)c(F)c(Cl)c3F)ccc21` [Example 54, 6-[3-chloro-2,4-difluoro-5-(2-oxopyrrolidin-1-yl)benzyl]-1-((S)-1-hydroxymethyl-2,2-dimethylpropyl)-4-oxo-1,4-dihydroquinoline-3-carboxylic acid], the IC50 was less than 10 nM.

For `CCc1cc2c(cc1Cc1cc(N3CCCC3=O)c(F)c(Cl)c1F)c(=O)c(C(=O)O)cn2[C@H](CO)C(C)(C)C` [Example 55, 6-[3-chloro-2,4-difluoro-5-(2-oxopyrrolidin-1-yl)benzyl]-7-ethyl-1-((S)-1-hydroxymethyl-2,2-dimethylpropyl)-4-oxo-1,4-dihydroquinoline-3-carboxylic acid], the IC50 lay in the range of 10 to 100 nM.

On to `CC(C)(C)[C@@H](CO)n1cc(C(=O)O)c(=O)c2cc(Cc3cc(N4CCOCC4)c(F)c(Cl)c3F)ccc21` [Example 56, 6-[3-chloro-2,4-difluoro-5-(morpholin-4-yl)benzyl]-1-((S)-1-hydroxymethyl-2,2-dimethylpropyl)-4-oxo-1,4-dihydroquinoline-3-carboxylic acid], for which the IC50 is less than 10 nM.

On to `COc1cc2c(cc1Cc1cc(-c3noc(C)n3)cc(Cl)c1F)c(=O)c(C(=O)O)cn2[C@H](CO)C(C)C` [Example 57, 6-[3-chloro-2-fluoro-5-(5-methyl-1,2,4-oxadiazol-3-yl)benzyl]-1-((S)-1-hydroxymethyl-2-methylpropyl)-7-methoxy-4-oxo-1,4-dihydroquinoline-3-carboxylic acid], for which the IC50 was less than 10 nM.

For the compound `CC(C)(C)[C@H](CO)n1cc(C(=O)O)c(=O)c2cc(Cc3cc(N4CCOCC4)c(F)c(Cl)c3F)ccc21` [Example 59, 6-[3-chloro-2,4-difluoro-5-(morpholin-4-yl)benzyl]-1-((R)-1-hydroxymethyl-2,2-dimethylpropyl)-4-oxo-1,4-dihydroquinoline-3-carboxylic acid], the IC50 was in the range of 10 to 100 nM.
